Data reported in ChEMBL document CHEMBL1201862, “PubChem BioAssay data set” (2004).
Values belong to the compound of their own block, whether it stands above or below them. Activity calls are given as the source filed them. Rule as the data show it, for most assays here: actives have a measured IC50 and inactives only a lower limit.

Experiments:
[1] = target: T1, Eukaryotic translation initiation factor 4H (Homo sapiens, UniProt Q15056); assay: human eIF4H binding inhibitors, primary screen, translation initiation inhibitor project, biochemical, uHTS, fluorescence polarization (AID 2012)
[2] = target: DNA dC->dU-editing enzyme APOBEC-3G (Homo sapiens, UniProt Q9HC16); assay type: functional;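 also: Dose-response counterscreen measuring inhibition of APOBEC3G DNA deaminase activity, run while confirming APOBEC3A inhibitors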
Sequence of DNA dC->dU-editing enzyme APOBEC-3G (Q9HC16 whole entry): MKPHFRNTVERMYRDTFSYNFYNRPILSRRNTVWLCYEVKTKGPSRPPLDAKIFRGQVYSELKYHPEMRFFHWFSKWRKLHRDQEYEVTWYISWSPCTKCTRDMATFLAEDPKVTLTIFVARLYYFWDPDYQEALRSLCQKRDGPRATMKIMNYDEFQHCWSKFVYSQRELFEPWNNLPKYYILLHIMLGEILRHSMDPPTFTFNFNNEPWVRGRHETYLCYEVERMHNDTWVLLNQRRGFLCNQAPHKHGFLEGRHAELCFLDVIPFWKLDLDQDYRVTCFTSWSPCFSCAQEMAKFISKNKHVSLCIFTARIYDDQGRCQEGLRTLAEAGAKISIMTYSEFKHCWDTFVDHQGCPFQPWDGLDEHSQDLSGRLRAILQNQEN

[3] = target: T2, Polyadenylate-binding protein 1 (Homo sapiens, UniProt P11940); assay: PABP inhibition in translation initiation, SAR follow-up (AID 435018); assay type: functional
T2 sequence (P11940 whole entry): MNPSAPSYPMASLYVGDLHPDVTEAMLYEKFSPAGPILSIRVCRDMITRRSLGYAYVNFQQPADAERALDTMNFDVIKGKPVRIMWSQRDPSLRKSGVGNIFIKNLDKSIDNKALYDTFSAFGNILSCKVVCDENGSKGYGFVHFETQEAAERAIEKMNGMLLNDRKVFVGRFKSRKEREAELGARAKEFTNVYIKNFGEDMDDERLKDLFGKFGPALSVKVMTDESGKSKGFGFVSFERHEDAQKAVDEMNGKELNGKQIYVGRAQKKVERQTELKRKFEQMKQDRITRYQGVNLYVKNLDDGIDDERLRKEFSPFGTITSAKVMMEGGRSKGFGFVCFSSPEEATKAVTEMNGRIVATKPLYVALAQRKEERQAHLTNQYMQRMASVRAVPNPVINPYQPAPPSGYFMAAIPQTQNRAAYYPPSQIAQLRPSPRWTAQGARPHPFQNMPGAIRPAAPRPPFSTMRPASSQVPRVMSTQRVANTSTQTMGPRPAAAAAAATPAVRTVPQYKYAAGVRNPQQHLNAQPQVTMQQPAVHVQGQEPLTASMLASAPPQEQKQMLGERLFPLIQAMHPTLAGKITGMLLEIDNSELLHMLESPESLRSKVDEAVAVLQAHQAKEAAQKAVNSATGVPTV

[4] = target: T2, Polyadenylate-binding protein 1; assay: PABP poly(A) RNA binding inhibitors, primary screen, biochemical, fluorescence polarization, uHTS (AID 2014)
[5] = target: T1, Eukaryotic translation initiation factor 4H; assay: eIF4H inhibition in translation initiation, SAR follow-up (AID 435011); assay type: functional
[6] = target: DNA dC->dU-editing enzyme APOBEC-3A (Homo sapiens, UniProt P31941); assay: Dose Response confirmation of small molecule APOBEC3A DNA Deaminase Inhibitors via a fluorescence-based single-stranded DNA deaminase assay. [Related pubchem assays (depositor defined):AID493011, AID493024]; assay type: functional
Sequence of DNA dC->dU-editing enzyme APOBEC-3A (P31941 whole entry): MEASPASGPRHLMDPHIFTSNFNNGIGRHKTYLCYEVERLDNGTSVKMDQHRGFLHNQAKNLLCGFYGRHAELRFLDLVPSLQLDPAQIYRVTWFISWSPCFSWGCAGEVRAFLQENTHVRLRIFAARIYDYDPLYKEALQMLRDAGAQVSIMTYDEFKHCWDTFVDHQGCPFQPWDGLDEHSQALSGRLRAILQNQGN

[7] = target: Melanin-concentrating hormone receptor 1 (Homo sapiens, UniProt Q99705); assay: Fluorescence-based counterscreen for antagonists of the G-protein coupled receptor 7 (GPR7): cell-based high throughput dose response assay to identify antagonists of the melanin-concentrating hormone receptor 1 (MCHR1).; assay type: functional
Sequence of Melanin-concentrating hormone receptor 1 (Q99705 whole entry): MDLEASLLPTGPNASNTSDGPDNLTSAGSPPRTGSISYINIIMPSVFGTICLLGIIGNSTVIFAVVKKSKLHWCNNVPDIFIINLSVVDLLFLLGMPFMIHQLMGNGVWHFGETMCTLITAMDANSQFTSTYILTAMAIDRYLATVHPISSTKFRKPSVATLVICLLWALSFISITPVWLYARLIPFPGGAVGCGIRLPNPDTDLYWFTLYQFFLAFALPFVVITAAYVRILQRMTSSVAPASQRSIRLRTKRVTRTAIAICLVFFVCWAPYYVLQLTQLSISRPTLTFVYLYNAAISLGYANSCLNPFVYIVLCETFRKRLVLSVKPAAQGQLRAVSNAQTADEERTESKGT

[8] = target: T3, Neuropeptides B/W receptor type 1 (Homo sapiens, UniProt P48145); assay: Fluorescence-based dose response cell-based high throughput screening assay to identify antagonists of the G-protein coupled receptor 7 (GPR7). [Related pubchem assays: 1952 (Screening assay (GPR7 antagonists).), 1880 (Summary AID.)]; assay type: functional
T3 sequence (P48145 whole entry): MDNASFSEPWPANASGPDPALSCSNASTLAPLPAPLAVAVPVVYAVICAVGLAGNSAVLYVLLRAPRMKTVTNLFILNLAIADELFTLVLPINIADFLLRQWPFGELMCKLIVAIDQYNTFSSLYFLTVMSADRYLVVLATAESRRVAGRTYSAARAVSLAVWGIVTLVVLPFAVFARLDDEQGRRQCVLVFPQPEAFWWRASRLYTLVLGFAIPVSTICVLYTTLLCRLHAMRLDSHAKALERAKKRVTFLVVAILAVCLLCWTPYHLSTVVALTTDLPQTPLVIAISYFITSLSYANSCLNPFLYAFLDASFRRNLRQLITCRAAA

[9] = target: T4, Alkaline phosphatase, tissue-nonspecific isozyme (Homo sapiens, UniProt P05186)
T4 sequence (P05186 whole entry): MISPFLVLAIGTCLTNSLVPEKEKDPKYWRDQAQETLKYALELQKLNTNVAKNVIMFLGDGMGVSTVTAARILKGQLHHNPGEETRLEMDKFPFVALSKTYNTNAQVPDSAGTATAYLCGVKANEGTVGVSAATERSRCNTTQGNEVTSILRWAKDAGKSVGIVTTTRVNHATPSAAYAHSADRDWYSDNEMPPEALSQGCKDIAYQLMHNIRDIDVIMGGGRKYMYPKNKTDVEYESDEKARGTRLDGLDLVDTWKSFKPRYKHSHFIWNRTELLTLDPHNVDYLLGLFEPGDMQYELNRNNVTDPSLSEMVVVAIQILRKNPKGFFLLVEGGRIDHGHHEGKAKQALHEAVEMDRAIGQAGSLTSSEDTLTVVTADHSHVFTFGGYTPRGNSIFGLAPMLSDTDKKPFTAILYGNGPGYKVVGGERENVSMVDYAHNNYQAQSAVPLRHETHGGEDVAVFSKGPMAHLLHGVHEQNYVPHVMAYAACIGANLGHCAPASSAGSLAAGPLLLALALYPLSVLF

[10] = target: Procathepsin L (Homo sapiens, UniProt P07711)
Sequence of Procathepsin L (P07711 whole entry): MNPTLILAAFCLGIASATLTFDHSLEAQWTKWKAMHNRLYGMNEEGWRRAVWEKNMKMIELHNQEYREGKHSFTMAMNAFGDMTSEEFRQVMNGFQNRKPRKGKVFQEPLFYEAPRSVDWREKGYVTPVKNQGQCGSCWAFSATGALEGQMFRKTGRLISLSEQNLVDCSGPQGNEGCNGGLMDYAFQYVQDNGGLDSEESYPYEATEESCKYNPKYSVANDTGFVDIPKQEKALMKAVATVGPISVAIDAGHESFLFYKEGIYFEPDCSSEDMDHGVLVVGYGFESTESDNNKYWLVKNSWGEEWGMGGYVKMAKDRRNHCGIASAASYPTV

[11] = target: Aspartyl aminopeptidase (Plasmodium falciparum 3D7, UniProt Q8I2J3)
Sequence of Aspartyl aminopeptidase (Q8I2J3 whole entry): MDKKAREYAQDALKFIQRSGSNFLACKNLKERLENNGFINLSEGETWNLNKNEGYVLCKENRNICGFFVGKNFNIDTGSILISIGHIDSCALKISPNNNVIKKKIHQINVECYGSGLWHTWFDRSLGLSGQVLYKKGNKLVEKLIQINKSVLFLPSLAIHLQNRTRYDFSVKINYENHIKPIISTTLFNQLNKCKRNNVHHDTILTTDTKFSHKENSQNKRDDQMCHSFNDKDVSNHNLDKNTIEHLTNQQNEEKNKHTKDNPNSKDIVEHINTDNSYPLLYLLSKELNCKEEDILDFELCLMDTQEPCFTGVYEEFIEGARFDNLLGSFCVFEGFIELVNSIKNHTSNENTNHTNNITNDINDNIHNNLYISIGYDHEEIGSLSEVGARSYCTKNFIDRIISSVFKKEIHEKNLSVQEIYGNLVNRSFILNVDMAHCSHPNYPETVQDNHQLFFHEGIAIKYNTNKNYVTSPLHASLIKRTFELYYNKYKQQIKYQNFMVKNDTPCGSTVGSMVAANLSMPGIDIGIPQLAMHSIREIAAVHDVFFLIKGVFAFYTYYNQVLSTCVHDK

[12] = target: T5, Mannose-6-phosphate isomerase (Homo sapiens, UniProt P34949); assay: inhibitors of human PMI, primary screen, biochemical, fluorescence intensity, coupled assay (AID 1209)
T5 sequence (P34949 whole entry): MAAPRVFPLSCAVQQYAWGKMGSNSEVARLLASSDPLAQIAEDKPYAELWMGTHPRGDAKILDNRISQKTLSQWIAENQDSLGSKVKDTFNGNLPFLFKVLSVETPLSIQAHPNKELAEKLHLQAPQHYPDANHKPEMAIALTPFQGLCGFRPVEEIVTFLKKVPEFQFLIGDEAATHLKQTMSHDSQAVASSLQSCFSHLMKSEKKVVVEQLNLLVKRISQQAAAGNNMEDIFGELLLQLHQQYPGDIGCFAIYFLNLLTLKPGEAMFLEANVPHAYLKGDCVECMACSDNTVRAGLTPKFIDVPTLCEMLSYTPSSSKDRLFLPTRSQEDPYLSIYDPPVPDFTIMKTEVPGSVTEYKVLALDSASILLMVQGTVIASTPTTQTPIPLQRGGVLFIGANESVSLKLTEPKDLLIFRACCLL

[13] = target: T5, Mannose-6-phosphate isomerase; assay: human PMI inhibitors, high substrate, primary screen, biochemical, fluorescence intensity, high mannose 6-phosphate (AID 1220)

Compound: Cc1ccc(NC(=O)C2CCN(C(=O)c3cccs3)CC2)c(C)c1
- IC50 [1]: > 100 µM (inactive)
- IC50 [2]: 6.56 µM (active)
- IC50 [3]: 4.95 µM (active)
- IC50 [4]: 6.51 µM (active)
- IC50 [5]: 47.6 µM (active)
- IC50 [6]: 4.37 µM (active)

- IC50 [7]: > 43.8 µM (not active)
- IC50 [8]: > 43.8 µM (not active)
Compound: COc1ccc(S(=O)(=O)N2CCC(C(=O)NCc3ccco3)CC2)cc1

- EC50 [9]: > 100 µM (not active)
Compound: O=C1CC(N2CCN(c3cccc(C(F)(F)F)c3)CC2)C(=O)N1c1ccc(F)cc1 (stereo not drawn)

- IC50 [10]: > 59.6 µM (not active)
- IC50 [11]: 5.07 µM (active)
- IC50 [12]: > 50 µM (not active)
- IC50 [13]: > 50 µM (not active)
Compound: CCOC(=O)NC1(Nc2ccc(C)cc2)Oc2ccccc2O1
